For data set [1], the target named is T1, VEGFR-2 (Homo sapiens, UniProt P35968). Nature of the data set: VEGFR-2/cell membrane chromatography (CMC) affinity evaluation. The class given is binding. Particulars: flow rate 0.6 mL/min, 37°C, 5 mM PBS pH 7.4, 270 nm. The protocol:
In previous studies, artificial cultures highly expressing VEGFR-2 on HEK293 cell lines were constructed. […] Chromatographic conditions: 10 mm×2.0 mm; flow rate0.6 mL/min; column temperature 37°C; mobile phase 5 mM PBS, pH 7.4; detection wavelength 270 nm.
The VEGFR-2 cell membrane stationary phase was prepared as previous reported. Aqueous ammonium acetate buffer solution (pH 7.4, 5 mM) was pumped at a flow rate of 0.2 mL/min as the mobile phase after VEGFR-2/CMC column was loaded onto the chromatography system at the temperature of 37°C. […] The mobile phase was 5.0 mM phosphate burred saline with a 0.6 mL/min flow rate at a column temperature of 37°C. The detected wavelength was 270 nm. The test compound was injected into the VEGFR-2/CMC column and their retention characteristics were identified to evaluate their affinity with VEGFR-2.

Data set [2] relates to MCF-7 xenograft. Nature of the data set: In vivo MCF-7 xenograft mice model. Particulars: ig, 40 mg/kg daily, 21 days.
Description: Six-week old female BALB/c mice were purchased from Shanghai Laboratory Animal center of the Chinese Academy of Sciences and housed under aseptic and ventilated condition. The mice were inoculated by subcutaneous injection with MCF-7 cancer cells suspended in 5% saline. Tumor volume and weight were measured on alternate days. Body weights were monitored as an indicator of toxicity. […] Treatment started from the next day and continued for 21 days. All mice were killed at the end of the experiment, and subcutaneous tumors were removed and weighted.
For data set [3], the target named is T1, VEGFR-2. The experiment in a line: ADP-Glo in vitro RTK inhibition assay, VEGFR-2. Conditions: ATP 50 μM. The format is biochemical. The protocol:
(§1) In order to validate the direct effect of title compounds on VEGFR-2, Tie-2, and EphB4 kinases, we performed in vitro assay using the ADP-Glo Kinase Assay Kit (Promega, Wisconsin, USA).
(§2) The kinase assay was performed in a reaction mixture of final volume of 10 μL. […] The plate was incubated at 30°C for 1 h. After the plate was cooled at room temperature for 5 min, 5 μL of ADP-Glo reagent was added into each well to stop the reaction and consume the remaining […] within 40 min. At the end, 10 μL of kinase detection reagent was added into the well and incubated for 30 min to produce a luminescence signal. […] The assay plate was incubated at 30°C for 4 h. After the plate was cooled at room temperature for 5 min, 5 μL of ADP-Glo reagent was added into each well to stop the reaction and consume the remaining […] within 1 h. At the end, 10 μL of kinase detection reagent was added into each well and incubated for 30 min to produce a luminescence signal. The luminescence was read by VICTOR-X multi-label plate reader.
Background: ADP-Glo turns the ADP formed in a reaction into a luminescent signal.

The target in data set [4] is TIE-2 (Homo sapiens, UniProt Q02763). Nature of the data set: ADP-Glo in vitro RTK inhibition assay, TIE-2. The format is biochemical. Conditions: ATP 50 μM. The protocol: as §1, §2
Sequence of TIE-2 (Q02763 23-1124): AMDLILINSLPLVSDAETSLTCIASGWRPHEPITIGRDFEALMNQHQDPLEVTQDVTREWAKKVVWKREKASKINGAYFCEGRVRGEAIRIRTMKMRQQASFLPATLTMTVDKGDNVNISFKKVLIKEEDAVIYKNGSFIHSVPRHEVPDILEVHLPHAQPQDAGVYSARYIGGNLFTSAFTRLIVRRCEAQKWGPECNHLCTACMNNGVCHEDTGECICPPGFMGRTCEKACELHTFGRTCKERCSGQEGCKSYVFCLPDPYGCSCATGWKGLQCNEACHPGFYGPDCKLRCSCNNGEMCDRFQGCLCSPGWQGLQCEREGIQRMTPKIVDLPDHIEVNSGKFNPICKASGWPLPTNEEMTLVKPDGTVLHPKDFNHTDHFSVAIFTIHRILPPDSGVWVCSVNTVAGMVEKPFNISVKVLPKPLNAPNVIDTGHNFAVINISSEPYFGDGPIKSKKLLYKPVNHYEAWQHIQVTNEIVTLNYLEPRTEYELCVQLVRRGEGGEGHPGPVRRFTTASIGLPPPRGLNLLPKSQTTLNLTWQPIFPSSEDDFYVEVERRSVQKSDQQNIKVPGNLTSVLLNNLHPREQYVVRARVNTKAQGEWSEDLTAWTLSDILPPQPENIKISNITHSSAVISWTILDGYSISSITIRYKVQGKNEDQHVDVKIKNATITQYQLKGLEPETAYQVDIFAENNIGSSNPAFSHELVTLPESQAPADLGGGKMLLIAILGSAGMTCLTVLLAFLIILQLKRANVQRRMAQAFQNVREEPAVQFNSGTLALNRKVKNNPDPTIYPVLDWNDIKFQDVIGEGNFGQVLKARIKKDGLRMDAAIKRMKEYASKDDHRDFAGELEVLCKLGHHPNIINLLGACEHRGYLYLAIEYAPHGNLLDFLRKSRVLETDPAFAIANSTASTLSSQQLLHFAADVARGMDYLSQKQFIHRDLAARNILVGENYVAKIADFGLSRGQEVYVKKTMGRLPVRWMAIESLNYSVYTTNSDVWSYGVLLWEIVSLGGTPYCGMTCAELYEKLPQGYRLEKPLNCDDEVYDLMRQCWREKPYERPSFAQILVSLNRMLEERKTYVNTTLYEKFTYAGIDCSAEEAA
Data set [5] has as its target T2, EphB4 (Homo sapiens, UniProt P54760).
T2 sequence (P54760 16-987): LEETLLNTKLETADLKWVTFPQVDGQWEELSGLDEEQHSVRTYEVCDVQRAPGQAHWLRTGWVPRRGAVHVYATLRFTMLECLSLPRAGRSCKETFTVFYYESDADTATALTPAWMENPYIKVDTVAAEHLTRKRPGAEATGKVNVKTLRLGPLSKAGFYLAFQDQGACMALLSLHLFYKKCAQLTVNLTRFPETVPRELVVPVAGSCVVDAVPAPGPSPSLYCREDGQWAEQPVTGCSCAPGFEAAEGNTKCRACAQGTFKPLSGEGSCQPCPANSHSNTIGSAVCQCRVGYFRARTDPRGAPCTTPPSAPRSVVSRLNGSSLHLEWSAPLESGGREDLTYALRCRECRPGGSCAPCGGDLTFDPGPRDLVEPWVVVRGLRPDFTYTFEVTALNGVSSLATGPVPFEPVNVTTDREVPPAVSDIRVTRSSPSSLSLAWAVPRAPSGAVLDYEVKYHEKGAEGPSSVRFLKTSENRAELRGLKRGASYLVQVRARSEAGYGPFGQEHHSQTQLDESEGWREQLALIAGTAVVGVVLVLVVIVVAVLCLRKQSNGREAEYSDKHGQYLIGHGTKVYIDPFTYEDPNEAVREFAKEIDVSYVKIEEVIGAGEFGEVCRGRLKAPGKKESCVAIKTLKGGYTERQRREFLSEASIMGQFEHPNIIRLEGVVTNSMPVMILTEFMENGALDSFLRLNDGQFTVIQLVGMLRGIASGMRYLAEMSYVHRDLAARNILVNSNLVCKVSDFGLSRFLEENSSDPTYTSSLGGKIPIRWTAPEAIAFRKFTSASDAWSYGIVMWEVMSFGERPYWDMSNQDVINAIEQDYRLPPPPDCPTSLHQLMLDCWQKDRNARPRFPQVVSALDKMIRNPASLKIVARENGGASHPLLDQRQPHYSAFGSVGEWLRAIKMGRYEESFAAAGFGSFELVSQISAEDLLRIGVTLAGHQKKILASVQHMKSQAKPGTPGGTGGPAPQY
Nature of the data set: ADP-Glo in vitro RTK inhibition assay, EphB4. The class given is biochemical. Particulars: ATP 50 μM. The protocol: as §1, §2

The target of data set [6] is VEGFR-1 (Homo sapiens, UniProt P17948). Nature of the data set: Kinase-Glo Plus RTK selectivity assay, VEGFR-1. The format is biochemical. Conditions: 10 μM ATP. The protocol:
(§3) A 50 μL reaction mixture contains 40 mM Tris, pH 7.4, 10 mM MgCl2, 0.1 mg/ml BSA, 1 mM DTT, 10 μM ATP, kinase and substrate (0.2 mg/mL Poly(Glu, Tyr)/10 μM ATP). The test compounds were diluted in 10% DMSO and 5 μL of the dilution was added to a 50 μL reaction so that the final concentration of DMSO is 1% in all of reactions. The assay was performed using Kinase-Glo Plus luminescence kinase assay kit. It measures kinase activity by quantitating the amount of ATP remaining in solution following a kinase reaction. The luminescent signal from the assay is correlated with the amount of ATP present and is inversely correlated with the amount of kinase activity. The IC50 values were calculated using nonlinear regression with normalized dose−response fit using Prism GraphPad software.
(Kinase-Glo reads ATP consumption through a luciferase reaction.)

For data set [7], the target named is FGFR-1 (Homo sapiens, UniProt P11362). Nature of the data set: Kinase-Glo Plus RTK selectivity assay, FGFR-1. Conditions: 10 μM ATP. The class given is biochemical. The protocol: The assay was performed using Kinase-Glo Plus luminescence kinase assay kit. It measures kinase activity by quantitating the amount of ATP remaining in solution following a kinase reaction. The luminescent signal from the assay is correlated with the amount of ATP present and is inversely correlated with the amount of kinase activity.

Data set [8] addresses FGFR-4 (Homo sapiens, UniProt P22455). Nature of the data set: Kinase-Glo Plus RTK selectivity assay, FGFR-4. The format is biochemical. Conditions: 10 μM ATP. The protocol: as §3
For data set [9], the target named is B-Raf (Homo sapiens, UniProt P15056). The experiment in a line: Kinase-Glo Plus RTK selectivity assay, B-Raf. Conditions: 10 μM ATP. The class given is biochemical. The protocol: as §3
Sequence of B-Raf (P15056 whole entry, species assumed): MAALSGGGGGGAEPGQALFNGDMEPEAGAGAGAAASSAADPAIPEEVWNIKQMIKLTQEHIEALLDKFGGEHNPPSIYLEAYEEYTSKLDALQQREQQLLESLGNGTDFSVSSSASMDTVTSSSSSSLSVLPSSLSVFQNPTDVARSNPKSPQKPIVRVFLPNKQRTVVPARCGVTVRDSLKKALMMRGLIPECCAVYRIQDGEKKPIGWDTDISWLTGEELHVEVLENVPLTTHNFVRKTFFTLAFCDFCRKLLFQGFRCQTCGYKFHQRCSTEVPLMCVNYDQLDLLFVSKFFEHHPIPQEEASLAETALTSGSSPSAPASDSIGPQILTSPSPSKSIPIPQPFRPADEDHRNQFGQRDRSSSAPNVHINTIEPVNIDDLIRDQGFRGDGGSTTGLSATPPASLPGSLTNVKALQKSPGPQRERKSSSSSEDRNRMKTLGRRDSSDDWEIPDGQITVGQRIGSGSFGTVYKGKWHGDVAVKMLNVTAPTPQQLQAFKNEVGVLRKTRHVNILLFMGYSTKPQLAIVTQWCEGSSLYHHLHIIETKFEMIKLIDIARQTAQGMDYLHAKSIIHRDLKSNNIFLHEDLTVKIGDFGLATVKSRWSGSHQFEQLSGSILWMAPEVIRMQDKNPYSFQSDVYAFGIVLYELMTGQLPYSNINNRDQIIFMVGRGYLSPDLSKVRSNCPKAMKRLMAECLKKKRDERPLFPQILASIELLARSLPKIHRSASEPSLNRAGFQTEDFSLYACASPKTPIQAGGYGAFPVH
For data set [10], the target named is EGFR (Homo sapiens, UniProt P00533). Nature of the data set: Kinase-Glo Plus RTK selectivity assay, EGFR. The format is biochemical. Particulars: 10 μM ATP. The protocol:
as §3

The target in data set [11] is c-Kit (Homo sapiens, UniProt P10721). Nature of the data set: Kinase-Glo Plus RTK selectivity assay, c-Kit. Particulars: 10 μM ATP. The class given is biochemical. The protocol:
as §3

Data set [12] concerns EA.hy926. The experiment in a line: Human endothelial cell (EA.hy926) viability assay, CCK-8. The class given is cell-based. Conditions: CCK-8, 24 h treatment, read-out: Inhibition of human endothelial cell viability, EA.hy926 IC50. The protocol: In order to determine the anti-angiogenic effect of these multi-target inhibitors, we evaluated their effect on HECs (EA.hy926) viability using cell counting kit-8 (CCK-8) method.
The viability of HECs (EA.hy926) was assessed using the cell counting kit-8 (CCK-8, Sigma, USA) assay according to the manufacturer's instruction. […] After incubation at 37°C for 48 h, the cells were treated with tested compounds at various concentrations for 24 h. Subsequently, premixed CCK-8 and medium (10 μL) were added into the 96-well plates to monitor cell viability and were incubated at 37°C for 2 h. The number of viable cells was assessed by measurement of absorbance at 450 nm by a microplate reader. The viability rate was calculated as experimental OD value/control OD value.

“And” between values parts separate entries of the source, which are not always exact repeats. Equal entries are not always repeated. Where two headings read alike, the source gives them in different places. Where only a bound is given, the exact number is not on record here.

T1 sequence (P35968 20-1356): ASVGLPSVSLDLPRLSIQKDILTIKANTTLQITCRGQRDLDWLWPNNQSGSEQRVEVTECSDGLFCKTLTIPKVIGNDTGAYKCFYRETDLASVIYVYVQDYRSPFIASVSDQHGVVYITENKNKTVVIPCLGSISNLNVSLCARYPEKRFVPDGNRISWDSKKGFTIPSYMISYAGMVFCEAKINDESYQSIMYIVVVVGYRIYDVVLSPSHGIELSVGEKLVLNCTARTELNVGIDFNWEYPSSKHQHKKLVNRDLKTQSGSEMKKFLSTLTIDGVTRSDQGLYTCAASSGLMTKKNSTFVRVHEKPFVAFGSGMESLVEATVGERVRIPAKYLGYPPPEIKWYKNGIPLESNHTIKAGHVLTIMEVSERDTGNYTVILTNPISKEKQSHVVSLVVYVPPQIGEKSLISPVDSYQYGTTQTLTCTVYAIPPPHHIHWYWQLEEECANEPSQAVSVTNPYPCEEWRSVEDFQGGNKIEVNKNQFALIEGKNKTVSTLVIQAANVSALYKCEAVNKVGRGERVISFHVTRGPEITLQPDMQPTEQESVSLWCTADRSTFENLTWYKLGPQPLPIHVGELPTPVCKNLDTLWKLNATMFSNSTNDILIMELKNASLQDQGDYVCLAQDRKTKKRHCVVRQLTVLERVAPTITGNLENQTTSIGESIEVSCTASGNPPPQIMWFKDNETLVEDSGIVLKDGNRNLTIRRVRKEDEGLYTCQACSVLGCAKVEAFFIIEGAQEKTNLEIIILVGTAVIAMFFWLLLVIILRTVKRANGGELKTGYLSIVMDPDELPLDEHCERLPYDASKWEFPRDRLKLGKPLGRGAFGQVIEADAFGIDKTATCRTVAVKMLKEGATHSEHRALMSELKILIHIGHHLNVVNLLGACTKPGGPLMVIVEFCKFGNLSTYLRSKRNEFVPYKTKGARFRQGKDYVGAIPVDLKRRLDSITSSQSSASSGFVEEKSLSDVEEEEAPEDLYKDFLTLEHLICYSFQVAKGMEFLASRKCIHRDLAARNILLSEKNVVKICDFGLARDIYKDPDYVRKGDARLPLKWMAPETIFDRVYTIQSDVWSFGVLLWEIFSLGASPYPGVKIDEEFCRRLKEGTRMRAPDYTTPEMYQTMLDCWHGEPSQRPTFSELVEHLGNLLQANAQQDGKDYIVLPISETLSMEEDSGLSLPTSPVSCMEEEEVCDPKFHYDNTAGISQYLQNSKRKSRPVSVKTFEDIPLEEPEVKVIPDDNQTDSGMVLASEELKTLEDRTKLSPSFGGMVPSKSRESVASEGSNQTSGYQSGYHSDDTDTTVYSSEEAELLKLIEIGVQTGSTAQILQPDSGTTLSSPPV
Sequence of VEGFR-1 (P17948 27-1338, species assumed): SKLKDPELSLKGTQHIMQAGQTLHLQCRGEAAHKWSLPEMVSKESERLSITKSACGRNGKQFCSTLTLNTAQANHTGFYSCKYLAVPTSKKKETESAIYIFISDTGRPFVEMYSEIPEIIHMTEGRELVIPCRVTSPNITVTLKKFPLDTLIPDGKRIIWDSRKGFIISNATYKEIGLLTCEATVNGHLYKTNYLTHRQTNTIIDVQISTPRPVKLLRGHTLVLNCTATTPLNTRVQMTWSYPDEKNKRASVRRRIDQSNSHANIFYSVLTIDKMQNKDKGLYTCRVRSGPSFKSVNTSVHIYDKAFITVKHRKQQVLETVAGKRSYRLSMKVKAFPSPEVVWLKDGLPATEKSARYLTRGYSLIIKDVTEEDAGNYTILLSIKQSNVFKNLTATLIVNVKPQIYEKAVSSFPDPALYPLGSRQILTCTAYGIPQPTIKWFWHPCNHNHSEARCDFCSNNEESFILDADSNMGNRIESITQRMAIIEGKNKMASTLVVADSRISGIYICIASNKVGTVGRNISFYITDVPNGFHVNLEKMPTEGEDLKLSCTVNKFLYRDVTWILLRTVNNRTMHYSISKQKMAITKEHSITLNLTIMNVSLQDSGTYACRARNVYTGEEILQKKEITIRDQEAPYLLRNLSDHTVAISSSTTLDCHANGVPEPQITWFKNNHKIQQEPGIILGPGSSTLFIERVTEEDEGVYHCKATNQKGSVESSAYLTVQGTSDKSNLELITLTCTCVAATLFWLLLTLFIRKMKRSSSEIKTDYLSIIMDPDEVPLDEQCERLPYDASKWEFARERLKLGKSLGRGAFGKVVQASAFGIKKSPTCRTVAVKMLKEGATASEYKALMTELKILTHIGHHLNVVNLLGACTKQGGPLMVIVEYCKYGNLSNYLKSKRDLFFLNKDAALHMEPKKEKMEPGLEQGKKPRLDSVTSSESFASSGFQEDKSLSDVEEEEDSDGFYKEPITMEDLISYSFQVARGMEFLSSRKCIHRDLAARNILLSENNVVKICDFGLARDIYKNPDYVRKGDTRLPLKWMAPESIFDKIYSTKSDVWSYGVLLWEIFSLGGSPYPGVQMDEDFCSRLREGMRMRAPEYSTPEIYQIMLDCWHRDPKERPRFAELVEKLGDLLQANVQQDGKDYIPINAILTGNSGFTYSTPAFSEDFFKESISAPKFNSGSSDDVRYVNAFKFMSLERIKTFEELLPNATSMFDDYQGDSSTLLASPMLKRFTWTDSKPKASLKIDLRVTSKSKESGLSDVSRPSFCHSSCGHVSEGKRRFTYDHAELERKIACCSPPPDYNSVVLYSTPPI

As for `CNC(=O)c1cc(Oc2ccc(NC(=O)Nc3ccc(Cl)c(C(F)(F)F)c3)c(F)c2)ccn1` [regorafenib, reference compound], the “Retention time on VEGFR-2/cell membrane stationary phase column” value in data set [1] was 11 min and 10.6 min.
In data set [2], `CNC(=O)c1cc(Oc2ccc(NC(=O)Nc3ccc(Cl)c(C(F)(F)F)c3)cc2)ccn1` [Sorafenib, sorafenib, reference compound] had a Final body weight of 16.8 ± 0.9 g and a Tumor growth inhibition of 53%. In data set [2] (control 0.848±0.5), this molecule showed a Final tumor weight of 0.398 ± 0.8 g.
For the molecule `COc1cc2c(Nc3ccc(Br)cc3F)ncnc2cc1OCC1CCN(C)CC1` [vandetanib, reference compound], the “Retention time on VEGFR-2/cell membrane stationary phase column” value in data set [1] came to 4.5 min.
As usually defined, the IC50 is the point on the concentration scale where inhibition reaches its midpoint. In general, melting point refers to the temperature, or range, at which the solid turns liquid. As to `O=C(Nc1ccc(-c2ccc3c(=O)[nH]cnc3c2)cc1)Nc1ccccc1F` [QDAU4, 1-(2-fluorophenyl)-3-(4-(4-oxo-3,4-dihydroquinazolin-7-yl)phenyl)urea], the melting point is above 300 °C. This molecule had an IC50 in data set [3] of 0.00191 µM. This molecule displayed a half-inhibitory concentration (IC50) in data set [4] of 0.00491 µM. In addition, the IC50 in data set [5] turned out to be 0.0139 µM. For the same molecule, the IC50 in data set [6] worked out at 0.0683 µM. In addition, the IC50 in data set [7] amounted to 0.166 µM. The IC50 in [8] came to 0.0834 µM. Also, the concentration for half-maximal inhibition (IC50) in data set [9] is 0.136 µM. Further, the IC50 in data set [10] is 0.113 µM. Moreover, in data set [11], the IC50 is above 0.5 µM. For the same molecule, the IC50 in [12] came to 8.64 µM. The half-inhibitory concentration (IC50) in data set [12] (Homo sapiens, EA.hy 926, 24 h) was below 10 µM.

The record behind these values is PMC5739597, “Discovery and evaluation of triple inhibitors of VEGFR-2, TIE-2 and EphB4 as anti-angiogenic and anti-cancer agents” (Oncotarget, 2017).
